According to patent US9365563B2, “TRPV1 antagonists including dihydroxy substituent and uses thereof” (Purdue Pharma L.P., priority 2007, dated 2016):

Assays:
[1] = Aqueous solubility; type: physicochemical
[2] = Plasma concentration after administration to an animal; type: in vivo
[3] = molecular target: human TRPV1 (Homo sapiens (Human), UniProt Q8NER1); test: Capsaicin-based assay, Protocol 2 (hCAP-CHO); type: cell-based; conditions: TRPV1/CHO cells, 100 nM capsaicin; mean ± SEM; read-out: TRPV1 IC50 Potency Human Capsaicin CHO (hCAP-CHO)
Sequence of human TRPV1 (Q8NER1 whole entry, the tested form may be a part): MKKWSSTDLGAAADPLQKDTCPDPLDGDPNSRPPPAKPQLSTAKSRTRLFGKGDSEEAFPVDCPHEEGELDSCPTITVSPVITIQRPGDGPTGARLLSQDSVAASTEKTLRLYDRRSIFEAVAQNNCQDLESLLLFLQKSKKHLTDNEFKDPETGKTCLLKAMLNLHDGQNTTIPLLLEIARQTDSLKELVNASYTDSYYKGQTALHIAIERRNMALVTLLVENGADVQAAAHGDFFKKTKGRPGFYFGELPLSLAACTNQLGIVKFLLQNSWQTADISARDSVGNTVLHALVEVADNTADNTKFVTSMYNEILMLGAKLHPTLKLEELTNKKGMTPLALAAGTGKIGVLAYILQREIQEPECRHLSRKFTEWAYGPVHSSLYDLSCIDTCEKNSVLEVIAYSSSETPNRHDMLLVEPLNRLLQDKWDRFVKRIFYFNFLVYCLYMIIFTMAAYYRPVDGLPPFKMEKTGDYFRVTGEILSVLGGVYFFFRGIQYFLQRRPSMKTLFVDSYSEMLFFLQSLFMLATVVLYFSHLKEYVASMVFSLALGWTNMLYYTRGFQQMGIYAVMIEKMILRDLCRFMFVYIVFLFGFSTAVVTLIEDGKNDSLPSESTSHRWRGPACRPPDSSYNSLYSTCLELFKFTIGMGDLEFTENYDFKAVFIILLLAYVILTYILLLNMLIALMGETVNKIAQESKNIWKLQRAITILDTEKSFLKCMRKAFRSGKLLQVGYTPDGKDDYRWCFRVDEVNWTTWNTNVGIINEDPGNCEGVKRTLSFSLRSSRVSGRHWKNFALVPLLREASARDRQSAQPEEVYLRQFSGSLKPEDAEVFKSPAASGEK
Excerpt: The TRPV1/CHO cell line was generated as described below. […] The resulting PCR products were purified from agarose gels using Gel Band Purification Kit (GE Healthcare Bioscience) and were subcloned into pCR-Blunt vector (Invitrogen). The cloned cDNA was fully sequenced using a fluorescent dye-terminator reagent (BigDye Terminator ver3.1 Cycle Sequencing Kit, Applied Biosystems) and ABI Prism 3100 genetic analyzer (Applied Biosystems). The pCR-Blunt vector containing the hTRPV1 cDNA was subjected to restriction digestion with EcoR1. The restriction fragment was subcloned into expression vector pcDNA3.1(-) (Invitrogen) and named pcDNA3.1(-)-hVR1 plasmid. The sequence of the cDNA encoding TRPV1 is available at GenBank accession number AJ277028. […] The cells were transfected with the pcDNA3.1(-)-hVR1 plasmid using FuGENE6 (Roche) according to the manufacturer's protocol. 24 hr after transfection, neomycin-resistant cells were selected using 1 mg/mL G418 (Nacalai Tesque). […] The cells expressing hTRPV1 were cultured in the growth medium supplemented with 1 mg/mL G418. […] Subsequently, the cells were loaded by incubation in 0.1 mL of wash buffer containing Fluo-4 at 3 μM final concentration. After 1 hour, the cells were washed twice with 0.2 mL wash buffer and resuspended in 0.1 mL wash buffer. The plates were then transferred to a Fluorescence Imaging Plate Reader (Molecular Devices). Fluorescence intensity was monitored for 15 seconds to establish a baseline. […] The final concentration of the compound was adjusted to range from 100 μM to 1.5625 μM. […] Data were collected over the entire time course and analyzed using Excel and the curve-fitting formula GraphPad Prism.

[4] = molecular target: TRPV1 receptor (Rattus norvegicus (Rat), UniProt O35433); test: Capsaicin-induced eye wipe test; type: in vivo; conditions: for number of capsaicin-induced eye wipes: pre-administration value 24
Sequence of TRPV1 receptor (O35433 whole entry): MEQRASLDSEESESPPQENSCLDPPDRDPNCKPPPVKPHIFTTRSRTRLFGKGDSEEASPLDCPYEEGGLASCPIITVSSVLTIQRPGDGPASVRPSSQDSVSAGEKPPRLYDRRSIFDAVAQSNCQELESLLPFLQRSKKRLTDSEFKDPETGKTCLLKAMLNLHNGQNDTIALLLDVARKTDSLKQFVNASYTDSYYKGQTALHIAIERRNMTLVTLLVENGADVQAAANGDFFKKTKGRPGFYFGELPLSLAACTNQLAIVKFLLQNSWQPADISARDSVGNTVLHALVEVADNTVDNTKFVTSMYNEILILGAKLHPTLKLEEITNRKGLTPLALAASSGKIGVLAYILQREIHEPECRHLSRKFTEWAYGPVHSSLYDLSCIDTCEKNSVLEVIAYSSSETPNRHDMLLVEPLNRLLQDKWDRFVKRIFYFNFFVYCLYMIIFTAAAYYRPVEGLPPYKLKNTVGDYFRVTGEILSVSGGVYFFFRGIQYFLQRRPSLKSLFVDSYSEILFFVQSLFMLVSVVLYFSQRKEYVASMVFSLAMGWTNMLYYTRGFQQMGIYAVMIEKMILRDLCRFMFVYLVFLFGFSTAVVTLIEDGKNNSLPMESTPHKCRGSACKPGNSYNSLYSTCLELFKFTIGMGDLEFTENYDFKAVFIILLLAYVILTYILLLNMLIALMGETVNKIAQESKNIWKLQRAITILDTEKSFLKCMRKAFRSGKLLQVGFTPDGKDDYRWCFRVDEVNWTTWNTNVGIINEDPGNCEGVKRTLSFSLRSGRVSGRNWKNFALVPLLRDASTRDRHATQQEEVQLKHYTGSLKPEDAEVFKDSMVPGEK
Procedure: Each experiment uses rats weighing between 200-260 g at the start of the experiment. The rats are group-housed and have free access to food and water at all times, except prior to oral administration of a compound of formula I when food is removed for 16 hours before dosing. A control group acts as a comparison to rats treated with a compound of formula I. The control group is administered the carrier for the compound of formula I. The volume of carrier administered to the control group is the same as the volume of carrier and compound of formula I administered to the test group.
To assess the effect of compounds of formula I on TRPV1 receptor-mediated pain, the capsaicin-induced eye wipe test is used (N. R. Gavva et al., “AMG 9810 [(E)-3-(4-t-Butylphenyl)-N-(2,3-dihydrobenzo[b][1,4]dioxin-6-yl)acrylamide], a Novel Vanilloid Receptor 1 (TRPV1) Antagonist with Antihyperalgesic Properties”, J. Pharmacol. Exp. Ther. 313:474-484 (2005)). The eye wipe test is a reliable high-throughput test of the effect of TRPV1 antagonists. Rats are given a single injection of 1, 3, 10 or 30 mg/kg of either a compound of formula I; 30 mg/kg of a control selected from Celebrex, indomethacin or naproxen; or carrier. At 1, 3 or 5 hours after drug administration, […] of a 100 μM capsaicin solution (in 10% EtOH/PBS) is instilled in one eye of each animal with a pipette. The number of forelimb movements (touching or wiping of the capsaicin-treated eye) are counted during a 2 minute period following instillation of capsaicin into the eye.

| Compound | aqueous solubility at pH 1.2 [1] [μM] | aqueous solubility at pH 6.8 [1] [μM] | further results |
| --- | --- | --- | --- |
| O=C(Nc1ccc(C(F)(F)F)cc1)N1CC=C(c2ncccc2Cl)CC1 [Compound 200] | < 0.1 | < 0.1 | aqueous solubility at pH 6.8 (in words) [1]: insoluble; time to maximum plasma concentration after administration ([2]; animal plasma): 3.1 h |
| O=C(Nc1ccc(C(F)(F)F)cc1)N1CCC(F)(c2ncccc2Cl)CC1 [Compound 203] | – | – | aqueous solubility at pH 6.8 (in words) [1]: insoluble |
| O=C(Nc1ccc(C(F)(F)F)cc1)N1CCC(F)(c2ncccc2F)CC1 [Compound 207] | – | – | aqueous solubility at pH 6.8 (in words) [1]: insoluble |
| O=C(Nc1ccc(C(F)(F)F)cc1)N1CC=C(c2ncccc2F)CC1 [Compound 208] | – | – | aqueous solubility at pH 6.8 (in words) [1]: insoluble |
| O=C(Nc1ccc(C(F)(F)F)c(F)c1)N1CCC(F)(c2ncccc2Cl)CC1 [Compound 209] | 9.3 | 1.0 | – |
| O=C(Nc1ccc(S(=O)(=O)C(F)(F)F)cc1)N1CCC(F)(c2ncccc2Cl)CC1 [Compound 210] | 2.0 | 0.4 | – |
| O=C(Nc1ccc(OC(F)(F)F)cc1)N1CCC(F)(c2ncccc2Cl)CC1 [Compound 211] | 1.3 | 0.4 | – |
| O=C(Nc1ccc(C(F)(F)F)c(F)c1)N1CCC(F)(c2ncccc2F)CC1 [Compound 212] | 10.3 | 1.9 | – |
| O=C(Nc1ccc(C(F)(F)F)c(F)c1)N1CC=C(c2ncccc2Cl)CC1 [Compound 213] | 39.6 | 0.8 | – |
| O=C(Nc1ccc(OC(F)(F)F)cc1)N1CC=C(c2ncccc2Cl)CC1 [Compound 214] | > 50 | 1.8 | – |
| O=C(Nc1ccc(C(F)(F)F)c(Cl)c1)N1CC=C(c2ncccc2F)CC1 [Compound 215] | 9.6 | 0.6 | – |
| O=C1C=C(c2ncc([C@H](O)CO)cc2Cl)CCN1C(=O)Nc1ccc(C(F)(F)F)cn1 [Compound C6] | – | – | IC50 [3]: > 25000 nM |
| O=C(Nc1ccc(OC(F)(F)F)c(-c2ccccc2)c1)N1CC=C(c2ncc(CO)cc2Cl)CC1 [Compound D3] | – | – | IC50 [3]: 565 ± 58.6 nM |
| CC(C)(C)c1ccc(NC(=O)N2CC=C(c3ncc([C@@H](O)CO)cc3Cl)CC2)cc1 [Compound E1] | – | – | IC50 [3]: 18.5 ± 4.9 nM |
| CC(C)S(=O)(=O)c1ccc(NC(=O)N2CC=C(c3ncc(CO)cc3Cl)CC2)cc1 [Compound K3] | – | – | IC50 [3]: > 10000 nM |
| O=C(O)c1cnc(C2=CCN(C(=O)Nc3ccc(C(F)(F)F)cc3)CC2)c(Cl)c1 [Compound M5] | – | – | IC50 [3]: > 25000 nM |
| O=C(Nc1ccc(C(F)(F)F)cc1)N1CCC(F)(c2ncc([C@H](O)CO)cc2Cl)CC1 [Compound N1, (S)-4-(3-chloro-5-(1,2-dihydroxyethyl)pyridin-2-yl)-4-fluoro-N-(4-(trifluoromethyl)phenyl)piperidine-1-carboxamide] | > 50 | 28.0 | decrease of eye wipes relative to pre-administration value ([4]; 1 hour after administration): 87.5%; number of capsaicin-induced eye wipes ([4]; 1 hour after administration): 3; decrease of eye wipes relative to pre-administration value ([4]; 3 hours after administration): 96%; number of capsaicin-induced eye wipes ([4]; 3 hours after administration): 1; decrease of eye wipes relative to pre-administration value ([4]; 5 hours after administration): 92%; number of capsaicin-induced eye wipes ([4]; 5 hours after administration): 2 |
| O=C(Nc1ccc(C(F)(F)F)c(Cl)c1)N1CCC(F)(c2ncc([C@@H](O)CO)cc2F)CC1 [Compound P5] | – | – | IC50 [3]: 49.5 nM |
| O=C(Nc1ccc(C(F)(F)F)c(Cl)c1)N1CCC(F)(c2ncc([C@H](O)CO)cc2F)CC1 [Compound Q3] | – | – | IC50 [3]: 14.3 ± 1.3 nM |
| O=C(Nc1ccc(C(F)(F)F)c(F)c1)N1CCC(F)(c2ncc([C@H](O)CO)cc2F)CC1 [Compound Y3] | > 50 | 17.4 | – |

Second part, led by results:

| aqueous solubility at pH 1.2 [1] [μM] | aqueous solubility at pH 6.8 [1] [μM] | Compound | further results |
| --- | --- | --- | --- |
| > 50 | 15.7 | O=C(Nc1ccc(OC(F)(F)F)cc1)N1CCC(F)(c2ncc([C@H](O)CO)cc2Cl)CC1 [Compound C1] | – |
| > 50 | > 50 | O=C(Nc1ccc(OC(F)(F)F)cc1)N1CC=C(c2ncc([C@H](O)CO)cc2Cl)CC1 [Compound E2] | – |
| > 50 | 22.6 | O=C(Nc1ccc(C(F)(F)F)c(F)c1)N1CCC(F)(c2ncc([C@H](O)CO)cc2Cl)CC1 [Compound F1] | – |
| 1.0 | 3.0 | CCOC(=O)c1cnc(C2=CCN(C(=O)Nc3ccc(C(F)(F)F)cc3)CC2)c(Cl)c1 [Compound F2] | – |
| > 50 | 9.2 | COC(=O)Cc1cnc(C2=CCN(C(=O)Nc3ccc(C(F)(F)F)cc3)CC2)c(Cl)c1 [Compound F6] | – |
| > 50 | 38.2 | CC(O)c1cnc(C2=CCN(C(=O)Nc3ccc(C(F)(F)F)cc3)CC2)c(Cl)c1 (centres unmarked) [Compound G2] | – |
| > 50 | > 50 | O=C(O)Cc1cnc(C2=CCN(C(=O)Nc3ccc(C(F)(F)F)cc3)CC2)c(Cl)c1 [Compound G6] | – |
| > 50 | > 50 | O=C(Nc1ccc(S(=O)(=O)C(F)(F)F)cc1)N1CCC(F)(c2ncc([C@H](O)CO)cc2Cl)CC1 [Compound H1] | – |
| > 50 | > 50 | CN(C)Cc1cnc(C2=CCN(C(=O)Nc3ccc(C(F)(F)F)cc3)CC2)c(Cl)c1 [Compound H6] | – |
| > 50 | > 50 | O=C(Nc1ccc(C(F)(F)F)cc1)N1CC=C(c2ncc(CO)cc2Cl)CC1 [Compound J2] | – |
| > 50 | > 50 | O=C(Nc1ccc(C(F)(F)F)cc1)N1CCC(F)(c2ncc([C@H](O)CO)cc2F)CC1 [Compound N6] | – |
| > 50 | > 50 | O=C(Nc1ccc(C(F)(F)F)c(F)c1)N1CC=C(c2ncc([C@H](O)CO)cc2Cl)CC1 [Compound S1, (S)-3-Chloro-5-(1,2-dihydroxy-ethyl)-3′,6′-dihydro-2′H-[2,4]bipyridinyl-1′-carboxylic acid (3-fluoro-4-trifluoromethyl-phenyl)amide] | – |
| > 50 | > 50 | O=C(Nc1ccc(C(F)(F)F)cc1)N1CC=C(c2ncc([C@H](O)CO)cc2F)CC1 [Compound U1] | – |
| > 50 | 26.4 | O=C(Nc1ccc(C(F)(F)F)c(Cl)c1)N1CC=C(c2ncc([C@H](O)CO)cc2F)CC1 [Compound U3] | – |
| > 50 | > 50 | O=C(Nc1ccc(C(F)(F)F)cc1)N1CC=C(c2ncc([C@H](O)CO)cc2Cl)CC1 [Compound Z1, (S)-3-Chloro-5-(1,2-dihydroxy-ethyl)-3′,6′-dihydro-2′H-[2,4]bipyridinyl-1′-carboxylic acid (4-trifluoromethyl-phenyl)amide] | time to maximum plasma concentration after administration ([2]; animal plasma): 2.5 h; maximum plasma concentration relative to the maximum for compound 200 ([2]; animal plasma, for a given dose): 2.5 times; plasma concentration up to 24 h compared with compound 200 ([2]; up to 24 h): consistently greater |
